{"source": "patent US7767238B2", "about": "“Beverage composition and method of preventing degradation of vitamins in beverages” (PepsiCo, Inc., priority 2005, dated 2010)", "key": {"[1]": {"assay": "Vitamin A Palmitate remaining in clear lemon-lime CSD with Vitamin C and EDTA, clear glass, store fluorescent light (Example 2)", "type": "physicochemical", "settings": "100 ppm stabilizer, start 2000 IU, one week fluorescent light, Light control 548, Dark control 1870", "experimental": "(§1) A clear lemon-lime (L/L) carbonated soft drink (CSD) with Vitamin C and ethylene-diaminetetraacetic acid (EDTA) was prepared. Seven samples of the carbonated soft drink were prepared each containing 2500 IU of Vitamin A Palmitate which can be obtained from Roche and the amount of rutin, SanMelin or blueberry leaves extract indicated in Table 8. All samples were packaged in clear glass containers. The Dark and Light samples were each free of rutin, SanMelin or blueberry leaves extract. The Dark sample was shielded from light. All the other samples, including the Light sample were exposed to typical store fluorescent light. The values in the table were all measured at one week.\nExample 2 differed from Example 1 in that the starting amount of Vitamin A Palmitate was 2000 IU."}, "[2]": {"assay": "Vitamin A Palmitate remaining in clear lemon-lime CSD with Vitamin C and EDTA, clear glass, store fluorescent light (Example 1)", "type": "physicochemical", "settings": "start 2500 IU, one week fluorescent light, Light control 576, Dark control 2300", "experimental": "as §1"}, "[3]": {"assay": "Vitamin A Palmitate remaining in non-carbonated pink lemonade 5% juice, PET bottle, store fluorescent light (Example 3)", "type": "physicochemical", "settings": "66 ppm stabilizer, start 3500 IU, one week fluorescent light, Light control 737, Dark control 3215", "experimental": "as §1\nA non-carbonated pink lemonade beverage composed of 5% juice was prepared. Seven samples like the ones in Examples 1 and 2 were prepared except that the starting amount of Vitamin A Palmitate was 3500 IU and the samples were packaged in PET containers."}, "[4]": {"assay": "Vitamin stabilization ability, observed rank order", "settings": "more hydroxyl groups on the aryl rings enhance vitamin stabilization"}, "[5]": {"assay": "Vitamin A remaining in fruit juice in 20 oz. PET bottle under store fluorescent light", "type": "physicochemical", "settings": "freshly prepared 3500 IU fruit juice, typical store fluorescent light, one week, no stabilizer"}}}
{"compound": "C[C@@H]1O[C@@H](OC[C@H]2O[C@@H](Oc3c(-c4ccc(O)c(O)c4)oc4cc(O)cc(O)c4c3=O)[C@H](O)[C@@H](O)[C@@H]2O)[C@H](O)[C@H](O)[C@H]1O", "note": "[Rutin, rutin]", "values": [{"measurement": "IU of Vitamin A Palmitate", "setting": "[1]", "result": 856, "unit": "IU"}, {"measurement": "IU of Vitamin A Palmitate", "setting": "[2]; 33 ppm stabilizer", "result": 878, "unit": "IU"}, {"measurement": "IU of Vitamin A Palmitate", "setting": "[2]; 66 ppm stabilizer", "result": 1215, "unit": "IU"}, {"measurement": "IU of Vitamin A Palmitate", "setting": "[3]", "result": 1824, "unit": "IU"}]}
{"compound": "COc1cc(/C=C/C(=O)O)ccc1O", "note": "[ferulic acid]", "values": [{"measurement": "vitamin stabilization ability (rank order)", "setting": "[4]", "result": "caffeic acid (2 hydroxyl groups)>ferulic acid>coumaric acid>cinnamic acid"}]}
{"compound": "O=C(O)C=Cc1ccccc1", "note": "[cinnamic acid]", "values": [{"measurement": "vitamin stabilization ability (rank order)", "setting": "[4]", "result": "caffeic acid (2 hydroxyl groups)>ferulic acid>coumaric acid>cinnamic acid"}]}
{"compound": "O=C(O)/C=C/c1ccc(O)cc1", "note": "[coumaric acid]", "values": [{"measurement": "vitamin stabilization ability (rank order)", "setting": "[4]", "result": "caffeic acid (2 hydroxyl groups)>ferulic acid>coumaric acid>cinnamic acid"}]}
{"compound": "O=C(O)/C=C/c1ccc(O)c(O)c1", "note": "[caffeic acid]", "values": [{"measurement": "vitamin stabilization ability (rank order)", "setting": "[4]", "result": "caffeic acid (2 hydroxyl groups)>ferulic acid>coumaric acid>cinnamic acid"}]}
{"compound": "Vitamin A", "values": [{"measurement": "remaining Vitamin A content", "setting": "[5]", "result": "approximately 1000 IU"}]}
